Experimental data: PMC8365602 (Journal of Medicinal Chemistry, 2021)

Tests used:
[1] = Hepatic metabolism in human liver-on-chip; assay type: in vitro ADME; settings: 1 μM, 48 h
Description: LCMs, 27a, and 27a metabolites were extracted from PMNL, medium of the liver-on-chip, murine plasma, peritoneal exudate, or homogenized murine tissue as described.[6] In brief, PBS pH 7.4, methanol, chloroform, and saline (final ratio: 14:34:35:17) were successively added together with 13d (9 pmol) as the internal standard. The organic layer was evaporated, and the extracted LCMs were dissolved in methanol.
LCMs, 27a, and 27a metabolites were separated at a flow rate of 0.8 mL/min and a column temperature of 45 °C, with acetonitrile/H2O (10:90) as mobile phase A and acetonitrile as mobile phase B, both acidified with 0.07% formic acid. The linear gradient from A/B = 50:50 to 0:100 within 4.5 min was followed by isocratic elution with A/B = 0:100 for 1 min. MS parameters were adjusted according to Pein et al.[6] and as detailed in Table S3. Signal intensities were normalized to the internal standard 13d, and concentrations were calculated using external calibration curves as specified in Table S3. […]
The medium between the two membranes was renewed, and the vehicle (DMSO), 12a, or 27a were added. […] 12a, 27a, and their metabolites were extracted from the combined fractions and analyzed by UPLC-MS/MS.[6]

monocytes = test: Monocyte membrane integrity (LDH release); assay type: cell-based, human; settings: higher concentrations (>1 μM)
Description: To measure mitochondrial dehydrogenase activity, 3-(4,5-dimethylthiazol-2-yl)-2,5-diphenyltetrazolium bromide (MTT) (20 μL, 5 mg/mL, Sigma-Aldrich) was added to PBMC. After 4 h in the darkness, the formed formazan product was solubilized (10% SDS in 20 mM HCl) and the absorbance was read at 570 nm using a Multiskan Spectrum microplate reader (Thermo Fisher Scientific).[81]
LDH release was measured in monocytes using a CytoTox 96 nonradioactive cytotoxicity assay (Promega, Madison, WI) according to the manufacturer’s instruction using Triton X-100 (0.8%) as the maximum LDH release control.

5-LOX [2] = biological target: T1, 5-LOX (Homo sapiens, UniProt P09917); test: 5-LOX product formation in activated PMNL; settings: PMNL, read-out: 5-LOX PMNL residual activity at 3 μM;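 further: freshly isolated human PMNL in PBS pH 7.4 plus glucose, preincubated 10 min at 37 °C with compound, 5-LOX products (all-trans LTB4 isomers, 5-HETE) quantified by RP-HPLC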
T1 sequence (P09917 1-674): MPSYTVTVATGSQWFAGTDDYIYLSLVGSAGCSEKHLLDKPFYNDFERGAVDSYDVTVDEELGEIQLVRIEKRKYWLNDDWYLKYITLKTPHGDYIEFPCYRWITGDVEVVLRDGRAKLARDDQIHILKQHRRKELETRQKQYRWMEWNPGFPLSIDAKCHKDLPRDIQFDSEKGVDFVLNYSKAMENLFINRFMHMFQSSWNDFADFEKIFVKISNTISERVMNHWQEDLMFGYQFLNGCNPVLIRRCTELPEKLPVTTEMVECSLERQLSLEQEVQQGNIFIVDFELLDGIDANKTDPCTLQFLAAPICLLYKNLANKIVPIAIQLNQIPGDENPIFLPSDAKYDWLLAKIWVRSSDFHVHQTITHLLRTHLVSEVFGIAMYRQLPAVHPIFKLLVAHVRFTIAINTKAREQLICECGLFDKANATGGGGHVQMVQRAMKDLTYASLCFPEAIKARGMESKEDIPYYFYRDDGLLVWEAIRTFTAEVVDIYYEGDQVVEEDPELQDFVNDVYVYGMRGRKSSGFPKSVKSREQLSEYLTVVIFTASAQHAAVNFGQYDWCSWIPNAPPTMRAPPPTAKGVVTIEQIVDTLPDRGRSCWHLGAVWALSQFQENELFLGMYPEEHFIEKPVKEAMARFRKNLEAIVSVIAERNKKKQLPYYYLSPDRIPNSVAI
Description: These volunteers regularly donated blood (every 8–12 weeks) and were physically inspected by a clinician.
Erythrocytes were removed by dextran sedimentation and hypotonic lysis. PMNL were obtained from the cell pellet and platelets from the supernatant.
Freshly isolated PMNL (5 × 10^6) suspended in PBS pH 7.4 with 1 mg/mL glucose or freshly withdrawn human whole blood were preincubated with the test compounds for 10 min (or as indicated) at 37 °C. […] The reaction was stopped with an equal volume of methanol.

5-LOX [3] = biological target: T1, 5-LOX; test: Tryptophan fluorescence spectroscopy of 5-LOX; assay type: binding; set-up: made in house; host or cells: E. coli Bl21 (DE3); settings: 5-LOX titrated with compound, 0–10 μM
Description: Fluorescence spectroscopy measurements on human recombinant 5-LOX (Abcam, Cambridge, U.K.) were conducted in PBS pH 7.4 at 25 °C using an Edinburgh Instruments FLS920 Series fluorescence spectrophotometer (Livingston, U.K.). […] The concentration range of 5-LOX used through the experiments was 0.3–0.6 μM. 5-LOX was titrated with a stock solution of the test compounds in dimethylformamide to yield an experimental compound concentration in the range of 0–10 μM. The final dimethylformamide concentration was kept under 5%. After each addition, the sample was incubated for 10 min before measurement. The fluorescence emission intensity values were corrected for dilution and background noise. All conditions were measured independently and in duplicate.
The fluorescence spectral shifts were analyzed by monitoring the alterations in the spectral center of mass by estimating the intensity-averaged emission wavelength (⟨λ⟩), as calculated from the following equation, where Fi is the fluorescence emission intensity at wavenumber νi, and the summation was performed over the range of measured F values [drawing 1] 1

5-LOX [4] = biological target: T1, 5-LOX; test: Cell-free 5-LOX activity (isolated human recombinant enzyme); settings: read-out: 5-LOX enzyme residual activity at 1 μM

## Cc1c(C)c2c(c(C)c1O)CC[C@@](C)(CCCC(C)CCCC(C)CCCC(C)C(=O)O)O2 (stereo partly drawn) [Compound 12a, α-T-13′-COOH]
[1]
  Hepatic metabolism: truncated to metabolites with varying side-chain lengths
monocytes
  LDH release from monocytes at higher concentrations: not evident
5-LOX [2]
  remaining activity at 3 µM: 2 ± 0.8%
5-LOX [3]
  Shift of spectral center of mass of intrinsic Trp fluorescence of 5-LOX: substantially shifted to a shorter wavelength
5-LOX [4]
  remaining activity at 1 µM: 0.8 ± 0.2%
